Data on two compounds can be found in patent publication US7517652B2, “Methods of diagnosing tumors using the G-protein coupled receptor (GPCR), RAI-3” (Bristol-Myers Squibb Company, priority 2002, dated 2009).

One series deals with RAI-3 mRNA. Briefly: RAI-3 mRNA by real-time PCR after treatment of cells with ATRA. The format is cell-based, human. As to conditions: 24 hours. As for the experimental part:
1×10^6 cells of each of the HEK 293, H292 and BEAS-2B cell lines were seeded into two (replicate) 100 mM cell culture dishes containing 20 ml of RPMI complete medium which contained L-glutamine, 10% fetal bovine serum and 1% Penicillin-Streptomycin (Gibco/BRL). To one 100 mM dish, 0.2 μl of DMSO were added. To the other 100 mM dish, 0.2 μl of 10 mM ATRA (Sigma R-2625, St. […] After 24 hours at 37° C. and 5% CO2, cells were lysed with Buffer RLT (Qiagen, Hilden, Germany) and total RNA was harvested pursuant to the Rneasy Midi Kit protocol (Qiagen, Hilden, Germany). RAI-3 messenger RNA levels were measured by Real-time PCR as described below in Example 1(N).
SYBR Green PCR amplification was performed on an ABI PRISM 7700 Sequence Detection System (PE Applied Biosystems, Foster City, Calif.), and the reaction was carried out using SYBR Green PCR Core reagents (PE Applied Biosystems). Real time PCR was carried out at 40 cycles with the following parameters: 95° C. for 15 seconds and 60° C. for 60 seconds, with a pre-incubation period of 50° C. for 2 minutes, followed by 95° C. for 10 minutes. All amplification was normalized to β-actin gene amplification in the linear portion of the amplification curves. Data were then expressed as a fold increase over a reference tissue or cell type.
Background: Real-time PCR tracks product formation cycle by cycle.

In the next series the test system is muc5AC protein. Briefly: muc5AC ELISA of supernatants of H292 cells exposed to cigarette smoke-bubbled media. The format is cell-based, human. The settings on record: transfected H292 cells, CS-10 for 72 hours, triplicate; listed as RAI-3 siRNA 1864+1865. As for the experimental part: At 24 hours post siRNA transfection, the media was changed to serum-free RPMI media containing 20 mM Glutamine and 1% Penicillin-Streptomycin and incubated at 37° C., 5% CO2, for 24 hours. At 48 hours post transfection, the serum-free RPMI media was removed from the cells and replaced with 1.0 ml of cigarette smoke-bubbled medium (i.e., CS-10, the equivalent of 10 cigarettes per 500 ml of cell culture medium) for 72 hours (96 hours post-transfection) or control. At 72 hours (96 hours post-transfection), 100 ul×3 of supernatent from each well in the 24-well plate was transferred to 96-well plate for ELISA analysis.
A muc5AC coating antibody, Gastric Mucin Ab-1 45M1 (NeoMarkers, Fremont, Calif.) was diluted 1:1000 to 1 ug/ml final in 50 mM NaHCO3 pH 9 and coated onto a standard 96-well ELISA plate overnight at room temperature with rotating. The next day the plate was washed three times with 1×PBS/0.05% Tween 20 (PBS-T) and blocked with 200 ul of blocking buffer, 1×PBS/1% BSA final (30% solution, Sigma-Aldrich Co. Saint Louis, Mo.). […] The next day the wells were washed three times with PBS-T. Muc5AC protein in the supernatent was detected with Peroxidase-Labeled Lectin from Glycine Max (Sigma-Aldrich, St. Louis, Mo.) diluted to 1ug/ml in 1×PBS/1% BSA final. […] Color reactions were stopped with 100 μl/well 1 N. H2SO4 and the absorbency at 450 nm-650 nm was measured.
For orientation: An ELISA detects its analyte on a solid surface through an enzyme-linked reagent.

Entries after “also recorded” stand apart in the source; their conditions may differ. d = 2'-deoxy (DNA); r = 2'-OH (RNA)

As to `CC1=C(/C=C/C(C)=C/C=C/C(C)=C/C(=O)O)C(C)(C)CCC1` [ATRA, all-trans retinoic acid], the “RAI-3 mRNA levels” value is “modest, but measurable increase” in the series on RAI-3 mRNA (H292 cells (high basal level of RAI-3 expression)); “increase; also recorded: induced” in the series with RAI-3 mRNA (HEK 293, BEAS-2B and H292 cells, ATRA 1 μM).

Consider “RAI-3 siRNA reagent 1864+1865: annealed double stranded siRNA r(GGUGCAGGACUCCAACAGG)d(TT) and r(CCUGUUGGAGUCCUGCACC)d(TT), SEQ ID NO:94 and 95 (chain 1 GGUGCAGGACUCCAACAGGTT; chain 2 CCUGUUGGAGUCCUGCACCTT; sugars from the 5' end r19 d2, backbone not given here)”, for which the “average ELISA signal, muc5AC protein in the supernatant” value in the series on muc5AC protein is “significantly reduced”.
